The text below walks through data of patent US7411066B2, “Amino methylated 2-pyridinones” (priority 2004, dated 2008).

The subject of assay [1] is NU14 adherence to type 5637 bladder cell line. Nature of the assay: Infection of bladder cells in vitro (Adherence Assay). Format: cell-based, Escherichia coli. The settings on record: 5637 bladder cells; untreated NU14 = 100%. How it is done:
Infection of Bladder Cells in vitro (Adherence Assay)
The infection of bladder cells in vitro was carried out according to the following steps:
Preparation of Tissue Culture Cells (Type 5637 Bladder Cell Line)
1. Place 1 ml of RPMI/10% FBS containing 1:20 dilution of 5637 cells in each well of 24 well plate.
2. Place in incubator for 3 days or until confluent growth.
Preparation of Bacterial Cells (Strains NU14 and UTI89)
1. Inoculate 20 ml of LB containing NU14 with a single colony or a loop from a frozen stock to a 250 ml flask.
2. Static growth at 37° C. for 2 days to induce pili production.
3. Harvest cells at 4,000×g for 10 minutes.
4. Resuspend in 5 ml of PBS ([…])
Infection of Tissue Culture Cells In Vitro
1. Wash each well with PBS MgCl2/CaCl2.
2. Place 1 ml of fresh medium to each well.
3. Add 10 μl of bacterial cells to each well. Triplicate plates.
4. Spin plate at 1800 rpm for 5 minutes.
5. View under 40× to see−2-3 bacterial cells/epithelial cell.
6. Place in lower incubator for 2 hours.
7. Wash two plates 5× with PBS MgCl2/CaCl2. Lyse by addition of 0.1% sarkosyl/0.5% glucose/PBS—MgCl2/CaCl2 one set and dilute for CFU.

Assay [2] relates to NU14 biofilm. Nature of the assay: Biofilm Assay (crystal violet stain on PVC plates). As to conditions: 48 hrs at room temperature, absorbance at 600 nm; untreated NU14 = 100%. Format: cell-based, Escherichia coli. The protocol: The Biofilm Assay was carried out according to the following steps:
Day 1 Set Up Biofilm Growth on PVC Plates
1. Sterilize PVC plates (96-well round bottom polyvinyl chloride [PVC] plates; Falcon #353911) and PVC Lids (Falcon #353913) in tissue culture hood under UV irradiation for at least 30 min.
2. Make dilution (from overnight cultures) or suspension (from either colonies on plates or freezer stocks) of bacterial cultures. Make enough of bacterial cultures for the number of wells needed. Bacterial culture need to be very dilute: at least 1:1,000 fold dilution from overnight cultures or a small quantity from colonies or freezer stocks.
3. Add 100 μl of bacterial cultures into each well. Make sure to have 1 well with LB alone as negative control and 1 well without anything for blank.
4. Cover plates with lids and leave plates undisturbed at room temperature for 48 hrs.
Day 3 Assay Biofilm With Crystal Violet Stain
5. Prepare enough PBS (w/out Mg^2+ Ca^2+) to wash biofilm plates (need at least 3 L PBS for 1-5 plates). Could use mpH2O instead of PBS.
6. Get a clean 4 L plastic beaker. Cover the bench with a large piece of absorbent pad.
7. Fill 3 containers (large enough to dip the 96-well plates in) with PBS.
8. Start washing a biofilm plate by dumping out bacterial cultures into the beaker. (Treat contents in this beaker as biohazard. Need to bleach the content before emptying it into drain.)
9. Fill the biofilm plate in the first PBS container and shake off PBS in the beaker. Rinse the biofilm 1× in the first PBS container. Put the biofilm plate into the second PBS container and rinse 2×.
10. Put the biofilm plate in the third PBS container and let sit.
11. Proceed to wash a second biofilm plate if there are any.
12. While the second biofilm plate is in the second container, rinse the first biofilm plate 1× and remove it from PBS. Decant residual PBS by banging the plate on paper towels on the bench. Leave the plate up-side-down on a clean paper towel and let the plate dry.
13. Put the second biofilm plate into the third PBS container and let sit.
14. Proceed to wash a third biofilm plate if applicable.
15. Repeat steps 8-14 until all plates are washed.
16. Let washed biofilm plates air-dry for at least 15 min.
Crystal Violet Stain and Wash
17. Fill 4 containers (large enough to dip the 96-well plates in) with PBS.
18. With a multi-channel pipet, add 125 μl of 1% Crystal Violet (in mpH2O). Stain biofilm plates sequentially for 10 min. (not more than 15 min). Give at least 2 minute break in-between staining each plates. If more than 4 biofilm plates, might want to consider staining and washing them in batches.
19. Start washing biofilm plates as above.
20. Let the washed plates air-dry for 10 minor so. […]
24. Proceed immediately to the Plate Reader and read the absorbance of the plate at 600 nm. […]

On to `Cc1c(-c2ccccc2)c2n(c(=O)c1CN(C)C)[C@H](C(=O)[O-])CS2.[Li+]`, for which, in assay [1], the “Adherence Assay % of Wild Type” value was 97.6%. The “Bioflim Assay % of Wild Type” value in assay [2] is recorded as 73.1%.
In the case of `CN(C)Cc1c(Cc2cccc3ccccc23)c(-c2ccccc2)c2n(c1=O)[C@H](C(=O)[O-])CS2.[Li+]`, in assay [1], the “Adherence Assay % of Wild Type” value worked out at 21.8%. Also, the “Bioflim Assay % of Wild Type” value in assay [2] amounted to 6.9%.
With `O=C([O-])[C@@H]1CSc2c(-c3ccccc3)c(Cc3cccc4ccccc34)c(CN3CCOCC3)c(=O)n21.[Li+]`, the “Adherence Assay % of Wild Type” value in assay [1] worked out at 14.3%. For the same molecule, the “Bioflim Assay % of Wild Type” value in assay [2] is listed as 6.8%.
With `O=C([O-])[C@@H]1CSc2c(C3CC3)c(Cc3cccc4ccccc34)c(CN3CCOCC3)c(=O)n21.[Li+]`, the “Adherence Assay % of Wild Type” value in assay [1] was found to be 12.2%. In assay [2], the “Bioflim Assay % of Wild Type” value turned out to be 8.3%.
